# Laboratory results from PubChem BioAssay AID179 (DTP/NCI, 2004).
# Activity calls are given as the source filed them.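 The calls were made as follows: active = compounds giving half or more protection of infected cells from virus-caused growth loss, again on retest; inactive = the rest.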
# Tested on: CEM cells HIV-1 protection, formazan growth assay
# Test: NCI AIDS Antiviral Assay
# Conditions: for IC50: measured here: growth of uninfected CEM cells
# Method in brief: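 Human CEM cells, uninfected and HIV-1-infected, received five drug concentrations, and growth was read by soluble formazan assay. Compounds giving at least 50% protection were retested; reproducible 100% protection defined confirmed active.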
SMILES,EC50 [µM],IC50 [µM],outcome
CCC(=O)n1c(=O)n(-c2ccc([N+](=O)[O-])cc2)c(=O)n1C(=O)CC,> 200,> 200,
C[N+]12CC3C(O)CC1CCC32 (stereo not given),> 1320,> 1320,
C=CCCCCCCCCC(=O)NCCN1CCOCC1,> 200,> 200,
Cn1c(=O)cc(CC(=O)O)c2ccccc21,> 200,> 200,
COC(=O)c1cc(=O)[nH]c2c1c(=O)n(C)c(=O)n2C,> 200,> 200,
C=CCC(CC=O)(C(=O)OCC)C(=O)OCC,> 200,110,
CC1(C)CC2=NO[Se]3=C2C(=NO3)C1,> 3.55,0.191,
N#Cc1cccc(/C=C2\Cc3ccccc3C2=O)c1,> 5.89,> 5.89,
c1ccc(C2=C(c3ccccc3)P(c3ccccc3)C2)cc1 (stereo not given),,,inactive
COc1cc(/C=C/c2ccnc3ccccc23)cc(OC)c1OC,> 200,1.48,
Cc1cn2c(=O)c3ncn(C4OC(CO)C(O)C4O)c3n(C)c2n1 (stereo not given),,,inactive
N#CC1(c2ccccc2)CCN(C2(c3ccccc3)CCCCC2)CC1,> 200,> 200,
COC1N(C2C=CC(CO)O2)C(=O)NC(=O)C1(C)I (stereo not given),0.275,7.76,
CC1(C)OC2OC(C(=O)c3ccccc3)C3OC(C)(C)OC3C2O1 (stereo not given),,,inactive
Fc1ccc(C2NC(c3ccc(Cl)cc3)c3cccn3-c3sccc32)cc1 (stereo not given),> 100,79.4,
CSC1(C(=O)O)C2CCC3C2CCC31 (stereo not given),,,inactive
CCC[N+]12CC=C(CO)C1C(O)CC2 (stereo not given),> 891,> 891,
O=C(O)c1cc2sc(C(=O)O)cc2s1,,,inactive
COc1ccc([N+](=O)[O-])c2c(NCCCN(C)C)c(C)c(C)nc12,> 200,91.2,
O=[N+]([O-])c1ccc(-n2nnc(C3=NCCCN3)c2-c2ccc(Cl)cc2)cc1,1.38,148,

SMILES,EC50 [µM],IC50 [µM],outcome
COc1ccc(C(=O)Nc2sc(SC)nc2C(N)=O)cc1,> 200,> 200,
Cn1c2c(c3ccccc31)CCN(CCCCN1CCCCC1)C2=O,> 372,58.9,
CCSc1nnc2c(-c3ccccc3)n[nH]c2n1,,,inactive
CNCCCNCCCSP(=O)(O)O,> 195,191,
NCCc1ccc(O)c(O)c1,> 200,132,
C=C[C@@]1(C)CC2(C=C(CO)C(O)O2)Oc2c1c(=O)oc1cccc(C)c21 (stereo not given in full),> 200,3.02,
CC(C)c1cc[n+](/C(C(=S)Nc2cccc(Cl)c2)=C(/[O-])c2ccc([N+](=O)[O-])cc2)cc1,> 200,69.2,
C=CCOC1=C(OC(C)=O)C(=O)OC1C1COC(C)(C)O1 (stereo not given),> 200,26.3,
C=CCn1c(=N)/c(=C(\N)O)s/c1=C1/SC(=S)N(c2ccc(C)cc2)C1=O,> 6.76,> 6.76,
CCOC(=O)c1[nH]c2nc(SC)nc(Nc3ccccc3Cl)c2c1N,> 200,126,
CC(C)(C)C1=NO[C@H]2[C@@H](NC(=O)c3ccccc3)CC[C@@H]12,> 871,302,
Nc1ccc(C2SCC(=O)N2NS(=O)(=O)c2cccc(C(=O)O)c2)cc1 (stereo not given),36.3,132,
COC1(OC)/C(=C(\N)C=O)NC(C)(C)N1O,,,inactive
COc1ccc(NC(=O)CC(=O)N2N=C(N(c3ccccc3)c3ccccc3)CC2c2ccccc2)cc1 (stereo not given),,,inactive
COc1ccc2c(c1)O[C@]1(O)c3cc4c(cc3O[C@@H]1C2)OCO4,> 12,> 12,
CCOP(=O)(OCC)C(Nc1ccc(F)cc1)c1cccc([N+](=O)[O-])c1 (stereo not given),> 200,55,
Oc1cccc(/C=C/c2cnnc3ccccc23)c1,> 200,37.2,
COc1ccc(NCn2nc(CCCCCCCCc3nn(CNc4ccc(OC)cc4)c(=S)o3)oc2=S)cc1,> 200,158,
CC1OC23CCCCC2C(C#N)(C#N)C1(C#N)C(=N)O3 (stereo not given),> 200,4.27,
